Test results: patent publication US11661420B2 (NANJING HEPO PHARMACEUTICAL CO., LTD, priority 2019, dated 2023)

Key:
[1] = test system: HBV surface antigen (HBsAg); assay: Cryopreserved PHH assay, ELISA of hepatitis B surface antigen in culture supernatant; assay type: cell-based, type D HBV in human primary hepatocytes (PHH); conditions: Hepatitis B virus, 240 h, read-out: HBsAg EC50
Protocol: (§1) The inhibitory effect of the compounds on HBV was evaluated by real-time quantitative qPCR assay (real time-qPCR) to detect the HBV DNA content in human primary hepatocytes (PHH) culture supernatant, and ELISA to detect the hepatitis B surface antigen and e antigen content, the EC50 value of the compounds was used as an indicator; meanwhile, the cell viability was detected by CellTiter-Glo to evaluate the toxicity of the compounds to cells.
(§2) 3.1. On day 0, PHH (1.32×10^5 cells/well) was seeded into a 48-well plate and incubated overnight at 37° C., 5% CO2.
(§3) 3.2. On the first day, PHH was infected with type D HBV (concentrated from HepDE19 cell culture supernatant).
(§4) 3.3 On the second day, the test compound was diluted to 7 concentrations with 5-fold serial dilution. Reference compound Peg-IFN-α 2a, 7 concentrations with 3-fold serial dilution. Compounds with different concentrations were added to the culture wells, and the wells were double-duplicated wells. The final concentration of DMSO in the culture medium was 2%.
(§5) 3.4 On the 4th, 6th, and 8th day, the culture medium was replaced by a fresh culture medium containing the compound.
(§6) 3.5 After collecting the culture supernatant from the culture well on the 10th day, the cell viability was tested with CellTiter-Glo. A portion of the culture supernatant was collected for ELISA determination to detect the content of hepatitis B virus surface antigen and e antigen; a portion of the sample was collected for extract DNA using a high-throughput DNA purification kit, referring to the product instructions for the specific steps.
(§7) 3.7 ELISA determination of hepatitis B virus surface antigen and e antigen
(§8) The specific steps can be referred to the product manual, the steps are briefly described as follows: 50 μL of sample and standard was added to the reaction plate respectively, 50 μL of enzyme conjugate was added to each well, the mixture was shaken and mixed well, then kept in a warm bath at 37° C. for 60 minutes, the plate was washed with washing solution for 5 times, 50 μL of the luminescent substrate was added to each well, the mixture was mixed well, and the reaction was carried out in the dark at room temperature for 10 minutes, and finally the chemiluminescence intensity was detected with the instrument.
(§9) Calculation of the inhibition percentage of HBV DNA, HBV surface antigen and e antigen. % Inh.=(1−value of the sample/value of DMSO control)×100.

HBV e antigen (HBeAg) = assay: Cryopreserved PHH assay, ELISA of hepatitis B e antigen in culture supernatant; assay type: cell-based, type D HBV in human primary hepatocytes (PHH); conditions: Hepatitis B virus, 240 h, read-out: HBeAg EC50
Protocol: as §1, §2, §3, §4, §5, §6, §7, §8, §9

HBV DNA = assay: Cryopreserved PHH assay, real-time qPCR of HBV DNA in culture supernatant; assay type: cell-based, type D HBV in human primary hepatocytes (PHH); conditions: Hepatitis B virus, 240 h; PHH infected with type D HBV, supernatant day 10, qPCR
Protocol: as §1, §2, §3, §4, §5, §6
3.6 Quantitative PCR to detect the content of HBV DNA
The qPCR reaction mixture, sample and standard were added to the 384 well reaction plate. PCR reactions: 95° C., 10 min; 95° C., 15 sec, 60° C., 1 min, 40 cycles.
as §9

[2] = Cryopreserved PHH assay, cell viability by CellTiter-Glo; assay type: cell-based; conditions: human, cryopreserved primary human hepatocytes (PHH), day 10, CellTiter-Glo
Protocol: as §1, §2, §4, §5, §6
Calculation of the percentage of cell viability: % viability=the luminescence value of the sample/the luminescence value of the DMSO control×100.

| Structure (SMILES) | EC50 [1] [nM] | EC50 (HBV e antigen (HBeAg)) [nM] | EC50 (HBV DNA) [nM] | CC50 at 8 days [2] [nM] |
| --- | --- | --- | --- | --- |
| O=C(O)C1CCN(c2ccc3c(=O)c4cccc(Cl)c4oc3c2)C1 (stereo not shown) [A, reference compound] | 9930 | 6880 | 576 | > 50000 |
| O=C(O)c1ccc(-c2csc(C3=NCc4cccc(Cl)c4N3)n2)cc1 [Compound I-1, 4-(2-(8-chloro-1,4-dihydroquinazolin-2-yl)thiazol-4-yl)benzoic acid] | 38100 | 18100 | 22200 | > 50000 |
| CC1N=C(c2nc(-c3ccc(C(=O)O)cc3)cs2)Nc2c(Cl)cccc21 (stereo not shown) [Compound I-2, 4-(2-(8-chloro-4-methyl-1,4-dihydroquinazolin-2-yl)thiazol-4-yl)benzoic acid] | 13.5 | 5.4 | 6.5 | > 50000 |
| CC1(C)N=C(c2nc(-c3ccc(C(=O)O)cc3)cs2)Nc2c(Cl)cccc21 [Compound I-4, 4-(2-(8-chloro-4,4-dimethyl-1,4-dihydroquinazolin-2-yl)thiazol-4-yl)benzoic acid] | 10.2 | 3.2 | 4.12 | > 50000 |
| O=C(O)c1ccc(-c2csc(C3=NC4(CC4)c4cccc(Cl)c4N3)n2)cc1 [Compound I-5, 4-(2-(8′-chloro-1′H-spiro[cyclopropyl-1,4′-quinazolin]-2′-yl)thiazol-4-yl)benzoic acid] | 105 | 9 | 11 | > 50000 |
| O=C(O)c1ccc(-c2csc(C3=NC4(COC4)c4cccc(Cl)c4N3)n2)cc1 [Compound I-11, 4-(2-(8′-chloro-1′H-spiro[oxetanyl-3,4′-quinazolin]-2′-yl)thiazol-4-yl)benzoic acid] | 163 | 17 | 21 | > 50000 |
| O=C(O)c1ccc(-c2csc(-c3cc(=O)c4cccc(Cl)c4[nH]3)n2)cc1 [Compound I-13, 4-(2-(8-chloro-4-oxo-1,4-dihydroquinolin-2-yl)thiazol-4-yl)benzoic acid] | > 50000 | > 5000 | > 5000 | > 50000 |
| O=C(O)c1ccc(-c2ccc(-c3cc(=O)c4cccc(Cl)c4o3)cc2)cc1 [Compound I-14, 4′-(8-chloro-4-oxo-4H-benzopyran-2-yl)-[1.1′-biphenyl)-4-carboxylic acid] | > 50000 | > 20000 | > 20000 | > 50000 |
| O=C(O)c1ccc(-c2csc(-c3cc(=O)c4cccc(Cl)c4o3)n2)cc1 [Compound I-19, 4-(2-(8-chloro-4-oxo-4H-benzopyran-2-yl)thiazol-4-yl)benzoic acid] | 39600 | ~15000 | 28400 | > 50000 |
| CC1(C)N=C(c2nc(-c3ccc(C(=O)O)cc3)cs2)Nc2ccccc21 [Compound I-20, 4-(2-(4,4-dimethyl-1,4-dihydroquinazolin-2-yl)thiazol-4-yl)benzoic acid] | 32 | 4 | 5 | > 50000 |
| CC1(C)N=C(c2nc(-c3ccc(C(=O)O)cc3)cs2)Nc2c(F)cccc21 [Compound I-21, 4-(2-(8-fluoro-4,4-dimethyl-1,4-dihydroquinazolin-2-yl)thiazol-4-yl)benzoic acid] | 16.5 | 4.8 | 6.9 | > 50000 |
| CC1(C)N=C(c2nc(-c3ccc(C(=O)O)cc3)cs2)Nc2c(Br)cccc21 [Compound I-22, 4-(2-(8-bromo-4,4-dimethyl-1,4-dihydroquinazolin-2-yl)thiazol-4-yl)benzoic acid] | > 50000 | 3.8 | 10 | > 50000 |
| CC1(C)N=C(c2nc(-c3ccc(C(=O)O)cc3)cs2)Nc2c(C(F)(F)F)cccc21 [Compound I-23, 4-(2-(4,4-dimethyl-8-trifluoromethyl-1,4-dihydroquinazolin-2-yl)thiazol-4-yl)benzoic acid] | > 50000 | 2 | 8.3 | > 50000 |
| CC1(C)N=C(c2nc(-c3ccc(C(=O)O)cc3)cs2)Nc2cc(Cl)ccc21 [Compound I-25, 4-(2-(7-chloro-4,4-dimethyl-1,4-dihydroquinazolin-2-yl)thiazol-4-yl)benzoic acid] | 440 | 63.2 | 98.8 | > 50000 |
| CC1(C)N=C(c2nc(-c3ccc(C(=O)O)cc3)cs2)Nc2ccc(Cl)cc21 [Compound I-27, 4-(2-(6-chloro-4,4-dimethyl-1,4-dihydroquinazolin-2-yl)thiazol-4-yl)benzoic acid] | > 50000 | 21.1 | 16.7 | > 50000 |
| CC1(C)N=C(c2nc(-c3ccc(C(=O)O)cn3)cs2)Nc2ccccc21 [Compound I-34] | 594 | 66.4 | 171 | > 50000 |
| CC1(C)N=C(c2nc(-c3ccc(C(=O)O)nc3)cs2)Nc2ccccc21 [Compound I-35, 5-(2-(4,4-dimethyl-1,4-dihydroquinazolin-2-yl)thiazol-4-yl)pyridin-2-carboxylic acid] | 1030 | 339 | 1130 | > 50000 |
| CC1(C)N=C(c2nc(-c3cccc(C(=O)O)c3)cs2)Nc2c(Cl)cccc21 [Compound I-36, 3-(2-(8-chloro-4,4-dimethyl-1,4-dihydroquinazolin-2-yl)thiazol-4-yl)benzoic acid] | > 50000 | > 50000 | 9960 | > 50000 |
| CC1(C)N=C(c2nc(-c3ccc(C(=O)O)cc3F)cs2)Nc2ccccc21 [Compound I-38, 4-(2-(4,4-dimethyl-1,4-dihydroquinazolin-2-yl)thiazol-4-yl)-3-flurobenzoic acid] | 92 | 12 | 16 | > 50000 |
| COc1cc(-c2csc(C3=NC(C)(C)c4ccccc4N3)n2)ccc1C(=O)O [Compound I-40, 4-(2-(4,4-dimethyl-1,4-dihydroquinazolin-2-yl)thiazol-4-yl)-2-flurobenzoic acid] | 302 | 34 | 31 | > 50000 |
| CC1N=C(c2ccc(-c3ccc(C(=O)O)cc3)cc2)Nc2c(Cl)cccc21 (stereo not shown) [Compound I-43, 4′-(8-chloro-4-methyl-1,4-dihydroquinazolin-2-yl)-[1.1′-biphenyl]-4-carboxylic acid] | > 50000 | 40800 | > 50000 | > 50000 |
| CC1(C)N=C(c2ccc(-c3ccc(C(=O)O)cc3)cc2F)Nc2c(Cl)cccc21 [Compound I-46, 4′-(8-chloro-4,4-dimethyl-1,4-dihydroquinazolin-2-yl)-3′-fluoro-[1.1′-biphenyl]-4-carboxylic acid] | > 50000 | 6320 | 48800 | > 50000 |
| CC1(C)N=C(c2ccc(-c3ccc(C(=O)O)cc3)cn2)Nc2c(Cl)cccc21 [Compound I-48, 4-(6-(8-chloro-4,4-dimethyl-1,4-dihydroquinazolin-2-yl)pyridin-3-yl)benzoic acid] | > 50000 | 426 | 4020 | > 50000 |
| CC1(C)N=C(c2ncc(-c3ccc(C(=O)O)cc3)cn2)Nc2c(Cl)cccc21 [Compound I-49, 4-(2-(8-chloro-4,4-dimethyl-1,4-dihydroquinazolin-2-yl)pyrimidin-5-yl)benzoic acid] | > 50000 | 41300 | 10900 | > 50000 |
| CC1(C)N=C(c2cc(-c3ccc(C(=O)O)cc3)co2)Nc2c(Cl)cccc21 [Compound I-50, 4-(5-(8-chloro-4,4-dimethyl-1,4-dihydroquinazolin-2-yl)furan-3-yl)benzoic acid] | 102 | 53.7 | 77.5 | > 50000 |
